Test results reported in patent US9790217B2, “Pyridinyloxy- and phenyloxy-pyrazolyl compounds” (Hoffmann-La Roche Inc., priority 2014, dated 2017).

Tests used:
human CYP11B2 = human CYP11B2 (Homo sapiens (Human), UniProt P19099); assay: G-402 cellular enzyme assay, human CYP11B2 (aldosterone release, HTRF); type: cell-based; details: G-402 cells expressing human CYP11B2; 1 μM Deoxycorticosterone
Description: (§1) Herein we identified the use of the G-402 cell line as a host cell to ectopically express (transiently or stably) enzymes of the CYP11 family. Specifically we developed stable G-402 cells expressing ectopically human CYP11B1, human CYP11B2, human CYP11A1, cynmolgus CYP11B1 or cynomolgus CYP11B2 enzyme activity. Importantly the identified cell line G-402 expresses co-factors (adrenodoxin and adrenodoxin reductase) important for the activity of the CYP11 family and no relevant enzyme activity of the CYP11 family (in comparison to H295R cells) was detected in these cells. Therefore the G-402 cell line is uniquely suited as a host cell for the ectopic expression of enzymes from the CYP11 family.
(§2) G-402 cells can be obtained from ATCC (CRL-1440) and were originally derived from a renal leiomyoblastoma.
(§3) The expression plasmids contains the ORF for either human/cyno CYP11B1 or CYP11B2 under the control of a suitable promoter (CMV-promoter) and a suitable resistance marker (neomycin). Using standard techniques the expression plasmid is transfected into G-402 cells and these cells are then selected for expressing the given resistance markers. Individual cell-clones are then selected and assessed for displaying the desired enzymatic activity using 11-Deoxycorticosterone (Cyp11B2) or 11-Deoxycortisol (Cyp11B1) as a substrate.
(§4) G-402 cells expressing CYP11 constructs were established as described above and maintained in McCoy's 5a Medium Modified, ATCC Catalog No. 30-2007 containing 10% FCS and 400 μg/ml G418 (Geneticin) at 37° C. under an atmosphere of 5% CO2/95% air. Cellular enzyme assays were performed in DMEM/F12 medium containing 2.5% charcoal treated FCS and appropriate concentration of substrate (0.3-10 uM 11-Deoxycorticosterone, 11-Deoxycortisol or Corticosterone). For assaying enzymatic activity, cells were plated onto 96 well plates and incubated for 16 h. An aliquot of the supernatant is then transferred and analyzed for the concentration of the expected product (Aldosterone for CYP11B2; Cortisol for CYP11B1). The concentrations of these steroids can be determined using HTRF assays from CisBio analyzing either Aldosterone or Cortisol.
(§5) Inhibition of the release of produced steroids can be used as a measure of the respective enzyme inhibition by test compounds added during the cellular enzyme assay. The dose dependent inhibition of enzymatic activity by a compound is calculated by means of plotting added inhibitor concentrations (x-axes) vs. measured steroid/product level (y-axes). The inhibition is then calculated by fitting the following 4-parameter sigmoidal function (Morgan-Mercer-Flodin (MMF) model) to the raw data points using the least squares method:
(§6) [formula] wherein, A is the maximum y value, B is the EC50 factor determined using XLFit, C is the minimum y value and D is the slope value.
(§7) EC50 values for compounds claimed herein were tested with the G402-based assay system described. Cyp11B2 enzyme activity was tested in presence of 1 μM Deoxycorticosterone and variable amounts of inhibitors; Cyp11B1 enzyme activity was tested in presence of 1 μM Deoxycortisol and variable amounts of inhibitors.

human CYP11B1 = human CYP11B1 (Homo sapiens (Human), UniProt P15538); assay: G-402 cellular enzyme assay, human CYP11B1 (cortisol release, HTRF); type: cell-based; details: G-402 cells expressing human CYP11B1; 1 μM Deoxycortisol
Description: as §1, §2, §3, §4, §5, §6, §7

Sequence of human CYP11B1 (P15538 25-503): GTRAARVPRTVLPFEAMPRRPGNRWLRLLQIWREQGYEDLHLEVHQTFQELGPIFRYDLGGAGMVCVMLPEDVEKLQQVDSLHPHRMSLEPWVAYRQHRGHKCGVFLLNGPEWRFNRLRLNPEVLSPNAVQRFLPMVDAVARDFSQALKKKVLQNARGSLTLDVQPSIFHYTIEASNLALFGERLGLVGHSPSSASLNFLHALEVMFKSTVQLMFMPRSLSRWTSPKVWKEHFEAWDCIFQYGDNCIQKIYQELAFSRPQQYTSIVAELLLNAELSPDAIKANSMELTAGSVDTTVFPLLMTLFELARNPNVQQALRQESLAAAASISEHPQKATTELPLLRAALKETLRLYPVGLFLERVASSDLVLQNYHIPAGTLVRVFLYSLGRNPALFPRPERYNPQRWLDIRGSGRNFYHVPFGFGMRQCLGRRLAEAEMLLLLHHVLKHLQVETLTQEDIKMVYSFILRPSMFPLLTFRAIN
Sequence of human CYP11B2 (P19099 25-503): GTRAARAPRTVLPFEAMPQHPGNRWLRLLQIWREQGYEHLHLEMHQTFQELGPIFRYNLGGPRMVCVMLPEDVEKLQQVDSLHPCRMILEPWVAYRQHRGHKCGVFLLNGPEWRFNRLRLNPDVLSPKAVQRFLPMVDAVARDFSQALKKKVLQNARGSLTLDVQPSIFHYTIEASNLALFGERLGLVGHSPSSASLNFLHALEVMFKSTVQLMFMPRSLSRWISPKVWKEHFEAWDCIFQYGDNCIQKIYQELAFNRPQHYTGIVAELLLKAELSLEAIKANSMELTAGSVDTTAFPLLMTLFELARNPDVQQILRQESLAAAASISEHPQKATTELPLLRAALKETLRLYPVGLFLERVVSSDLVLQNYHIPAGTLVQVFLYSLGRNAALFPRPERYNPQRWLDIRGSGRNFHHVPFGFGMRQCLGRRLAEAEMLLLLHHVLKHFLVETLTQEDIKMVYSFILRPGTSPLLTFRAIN

| Compound | EC50 (human CYP11B2) | EC50 (human CYP11B1) |
| --- | --- | --- |
| CC(=O)N1CCC(Oc2cccc(-c3[nH]ncc3Oc3ccc(C#N)cc3)c2)C1 (racemic) [Example 58, (rac)-4-[[3-[3-(1-Acetylpyrrolidin-3-yl)oxyphenyl]-1H-pyrazol-4-yl]oxy]benzonitrile] | 215 nM | 1510 nM |
| CC(=O)N1CCCC(c2[nH]ncc2Oc2ccc(C#N)cc2)C1 (racemic) [Example 62, (rac)-4-[[3-(1-Acetylpiperidin-3-yl)-1H-pyrazol-4-yl]oxy]benzonitrile] | 370 nM | 2280 nM |
| Cn1cc(C(=O)N2CCCC(c3[nH]ncc3Oc3ccc(C#N)cc3)C2)cn1 (racemic) [Example 63, (rac)-4-[[3-[1-(1-Methylpyrazole-4-carbonyl)piperidin-3-yl]-1H-pyrazol-4-yl]oxy]benzonitrile] | 150 nM | 6470 nM |
| N#Cc1ccc(Oc2cn[nH]c2C2CCCN(C(=O)c3cccnc3)C2)cc1 (racemic) [Example 64, (rac)-4-[[3-[1-(Pyridine-3-carbonyl)piperidin-3-yl]-1H-pyrazol-4-yl]oxy]benzonitrile] | 405 nM | 8160 nM |
| N#Cc1ccc(Oc2cn[nH]c2C2CCCN(C(=O)c3ccccn3)C2)cc1 (racemic) [Example 65, (rac)-4-[[3-[1-(Pyridine-2-carbonyl)piperidin-3-yl]-1H-pyrazol-4-yl]oxy]benzonitrile] | 1410 nM | 5910 nM |
| Cn1cc(C(=O)N2CCCC(c3[nH]ncc3Oc3ccc(C#N)cc3F)C2)cn1 (racemic) [Example 89, (rac)-3-Fluoro-4-[[5-[1-(1-methylpyrazole-4-carbonyl)piperidin-3-yl]-1H-pyrazol-4-yl]oxy]benzonitrile] | 231 nM | 7760 nM |
| N#Cc1ccc(Oc2cn[nH]c2C2CCCN(C(=O)c3cccnc3)C2)c(F)c1 (racemic) [Example 91, (rac)-3-Fluoro-4-[[3-[1-(pyridine-3-carbonyl)piperidin-3-yl]-1H-pyrazol-4-yl]oxy]benzonitrile] | 1260 nM | 9010 nM |
| Fc1cccc(-c2[nH]ncc2Oc2ccc(Cl)cc2)c1F [Example 1, 4-(4-Chlorophenoxy)-5-(2,3-difluorophenyl)-1H-pyrazole] | 29.8 nM | 1030 nM |
| COc1ccc(Oc2cn[nH]c2-c2ccc(Cl)cc2)cc1 [Example 2, 3-(4-Chlorophenyl)-4-(4-methoxyphenoxy)-1H-pyrazole] | 463 nM | 1970 nM |
| COc1ccc(-c2[nH]ncc2Oc2ccc(Cl)cc2)c(OC)c1 [Example 5, 4-(4-Chlorophenoxy)-3-(2,4-dimethoxyphenyl)-1H-pyrazole] | 2.5 nM | 11.6 nM |
| FC(F)(F)Oc1ccccc1-c1[nH]ncc1Oc1ccc(Cl)cc1 [Example 7, 4-(4-Chlorophenoxy)-5-[2-(trifluoromethoxy)phenyl]-1H-pyrazole] | 24.4 nM | 861 nM |
| Fc1ccccc1-c1[nH]ncc1Oc1ccc(Cl)cc1 [Example 9, 4-(4-Chlorophenoxy)-5-(2-fluorophenyl)-1H-pyrazole] | 7.9 nM | 167 nM |
| Fc1cc(Cl)ccc1-c1[nH]ncc1Oc1ccc(Cl)cc1 [Example 11, 5-(4-Chloro-2-fluorophenyl)-4-(4-chlorophenoxy)-1H-pyrazole] | 45.8 nM | 433 nM |
| FC(F)(F)c1ccc(-c2[nH]ncc2Oc2ccc(Cl)cc2)cc1 [Example 14, 4-(4-Chlorophenoxy)-5-[4-(trifluoromethyl)phenyl]-1H-pyrazole] | 2030 nM | 2670 nM |
| Fc1cccc(Oc2cn[nH]c2-c2ccc(Cl)cc2Cl)n1 [Example 21, 2-[[5-(2,4-Dichlorophenyl)-1H-pyrazol-4-yl]oxy]-6-fluoropyridine] | 101 nM | 841 nM |
| Cc1cccc(Oc2c[nH]nc2-c2ccc(Cl)cc2Cl)n1 [Example 22, 2-[[3-(2,4-Dichlorophenyl)-1H-pyrazol-4-yl]oxy]-6-methylpyridine] | 42.1 nM | 611 nM |
| FC(F)(F)c1ccc(Oc2cn[nH]c2-c2ccccc2Cl)cc1 [Example 23, 5-(2-Chlorophenyl)-4-[4-(trifluoromethyl)phenoxy]-1H-pyrazole] | 26.8 nM | 723 nM |
| Fc1cc(Cl)ccc1Oc1cn[nH]c1-c1ccccc1Cl [Example 24, 4-(4-Chloro-2-fluorophenoxy)-5-(2-chlorophenyl)-1H-pyrazole] | 10.2 nM | 350 nM |
| Fc1cc(Cl)ccc1-c1[nH]ncc1Oc1ccc(C(F)(F)F)cc1 [Example 27, 5-(4-Chloro-2-fluorophenyl)-4-[4-(trifluoromethyl)phenoxy]-1H-pyrazole] | 575 nM | 3320 nM |

The remaining compounds from weak to strong by EC50 (human CYP11B2), led by results:

| EC50 (human CYP11B2) | EC50 (human CYP11B1) | Compound |
| --- | --- | --- |
| 408 nM | 2470 nM | Fc1cc(C(F)(F)F)ccc1-c1[nH]ncc1Oc1ccc(Cl)cc1 [Example 13, 4-(4-Chlorophenoxy)-5-[2-fluoro-4-(trifluoromethyl)phenyl]-1H-pyrazole] |
| 323 nM | 1380 nM | Clc1ccc(Oc2cn[nH]c2-c2ccc(Cl)cc2)cc1 [Example 3, 4-(4-Chlorophenoxy)-3-(4-chlorophenyl)-1H-pyrazole] |
| 311 nM | 3390 nM | Cc1ccc(Oc2cn[nH]c2-c2ccccc2Cl)cn1 [Example 20, 5-[[5-(2-Chlorophenyl)-1H-pyrazol-4-yl]oxy]-2-methylpyridine] |
| 113 nM | 387 nM | Clc1ccc(Oc2cn[nH]c2-c2ccccc2Cl)cn1 [Example 19, 2-Chloro-5-[[5-(2-chlorophenyl)-1H-pyrazol-4-yl]oxy]pyridine] |
| 84.5 nM | 1970 nM | CS(=O)(=O)c1ccc(-c2[nH]ncc2Oc2ccc(C(F)(F)F)cc2)cc1 [Example 16, 5-(4-Methylsulfonylphenyl)-4-[4-(trifluoromethyl)phenoxy]-1H-pyrazole] |
| 60.8 nM | 835 nM | COc1ccc(Cl)cc1-c1[nH]ncc1Oc1ccc(Cl)cc1 [Example 10, 3-(5-Chloro-2-methoxyphenyl)-4-(4-chlorophenoxy)-1H-pyrazole] |
| 60.8 nM | 522 nM | CSc1ccc(-c2[nH]ncc2Oc2ccc(Cl)cc2)c(Cl)c1 [Example 17, 5-(2-Chloro-4-methylsulfanylphenyl)-4-(4-chlorophenoxy)-1H-pyrazole] |
| 26.4 nM | 600 nM | CS(=O)(=O)c1ccc(-c2[nH]ncc2Oc2ccc(Cl)cc2)cc1 [Example 12, 4-(4-Chlorophenoxy)-5-(4-methylsulfonylphenyl)-1H-pyrazole] |
| 23.9 nM | 462 nM | CS(=O)(=O)c1ccc(-c2[nH]ncc2Oc2ccc(C#N)cc2)cc1 [Example 18, 4-[[5-(4-Methylsulfonylphenyl)-1H-pyrazol-4-yl]oxy]benzonitrile] |
| 18.6 nM | 159 nM | Fc1ccc(-c2[nH]ncc2Oc2ccc(Cl)cc2)c(F)c1 [Example 15, 4-(4-Chlorophenoxy)-5-(2,4-difluorophenyl)-1H-pyrazole] |
| 7.5 nM | 161 nM | N#Cc1ccc(Oc2cn[nH]c2-c2cccc(F)c2F)cc1 [Example 29, 4-[[5-(2,3-Difluorophenyl)-1H-pyrazol-4-yl]oxy]benzonitrile] |
| 4 nM | 75.7 nM | FC(F)Oc1ccccc1-c1[nH]ncc1Oc1ccc(Cl)cc1 [Example 8, 4-(4-Chlorophenoxy)-5-[2-(difluoromethoxy)phenyl]-1H-pyrazole] |
| 2.6 nM | 51.8 nM | Clc1ccc(Oc2cn[nH]c2-c2ccccc2Cl)cc1 [Example 6, 4-(4-Chlorophenoxy)-5-(2-chlorophenyl)-1H-pyrazole] |
| 1.5 nM | 134 nM | N#Cc1ccc(Oc2cn[nH]c2-c2ccccc2Cl)c(F)c1 [Example 28, 4-[[5-(2-Chlorophenyl)-1H-pyrazol-4-yl]oxy]-3-fluorobenzonitrile] |
| 0.2 nM | 18.5 nM | N#Cc1ccc(Oc2cn[nH]c2-c2ccccc2Cl)cc1 [Example 25, 4-[[5-(2-Chlorophenyl)-1H-pyrazol-4-yl]oxy]benzonitrile] |
| 0.1 nM | 1.3 nM | COc1ccccc1-c1[nH]ncc1Oc1ccc(Cl)cc1 [Example 4, 4-(4-Chlorophenoxy)-3-(2-methoxyphenyl)-1H-pyrazole] |
